Assays:
[1] = test system: 4-hydroxy-2-alkylquinoline (HAQ) levels, P. aeruginosa PA14 (MvfR regulon); type: cell-based, Pseudomonas aeruginosa; settings: for activity (impacts on HAQ and pyocyanin levels), structure-activity comparison / HAQ production / HAQ inhibition: tested at 10 μM; for concentration at which compound was effective (decreased HAQ levels), as low as: among the seventeen HAQ-lowering hits; for reduction / inhibition of HAQs: very low concentrations, nanomolar range
[2] = test system: ΔmvfR mutant constitutively expressing the pqsABCD genes; experiment: HAQ production in ΔmvfR mutant constitutively expressing pqsABCD (LC/MS); type: cell-based, Pseudomonas aeruginosa; settings: 100 μM inhibitor
Text: However, since these compounds diminish or abolish P. aeruginosa HAQ production, it is possible that they target either the MvfR protein itself or enzymes in the pqs operon that are required for HAQ synthesis. To further understand the target(s) of these compounds, a ΔmvfR mutant constitutively expressing the pqsABCD genes was used. This strain is capable of synthesizing HHQ, HQNO, PQS and DHQ independently of MvfR. […] Since PqsA and PqsD are necessary and sufficient for DHQ production, it is possible that these inhibitors target either PqsB or PqsC enzymes, which are required for HHQ and PQS production.

[3] = test system: Raw264.7 macrophage cells infected with PA14; experiment: Viability of PA14-infected macrophage cells (MTT assay); type: cell-based; settings: PA14 MOI 100, 3 h, 100 μM compound
Procedure: Raw264.7 macrophage cells were cultured in Dulbecco's modified eagles medium (DMEM) containing 10% FCS, 2 mM glutamine and antibiotic-antimycotic solutions. Before infections cells were washed with PBS (without Mg2+ and Ca2+) and antibiotic-free medium was used for infections. The cells were infected with PA14 and PA14 isolates grown in the presence of compounds at an MOI of 100 for 3 h at 37° C. in a 5% CO2 atmosphere. During infections cells were incubated with 100 μM of compounds as well. After 3 hours of PA14 infection, the cells were washed and incubated with DMEM medium containing polymixin B and gentamicin in order to kill the extracellular bacteria. The viability of Raw264.7 was assessed using the MTT assay, which detects the early sign of eukaryotic cell death. The formazan crystals formed in viable, metabolically active cells were dissolved by the addition of 100 μl DMSO and optical density was measured at 570 nm in a microplate reader.
In order to determine whether or not the potent inhibitors are cytotoxic in eukaryotes, Raw 264.7 macrophage cells were exposed to selected compounds. No significant cytotoxicity was observed following compound exposure for 3 hours compared to the DMSO solvent control (FIG. 6A). The cytotoxicity of the macrophage cells was also determined when infected with PA14 bacterial cells alone or in the presence of the compounds.

[4] = test system: pyocyanin, an MvfR-regulated virulence factor, P. aeruginosa PA14; experiment: Quantification of pyocyanin (OD520nm of chloroform-extracted cultures); type: cell-based, Pseudomonas aeruginosa; settings: for reduction / inhibition of pyocyanin: very low concentrations, nanomolar range; for pyocyanin levels: twelve of the 17 HAQ-lowering hits, vs control
Procedure: Pyocyanin levels were determined by measuring OD520nm of chloroform-extracted cultures.
Compounds were tested at various concentrations for their impact on 4-hydroxy-2-alkylquinoline (HAQ) levels, including the MvfR ligands 4-hydroxy-2-heptylquinoline (HHQ) and 3,4-dihydroxy-2-heptylquinoline (PQS), as well as 2-n-heptyl-4-hydroxyquinoline-N-oxide (HQNO) and 2,4-dihydroxyquinoline (DHQ) (FIGS. 2A-2C). Levels of the phenazine, pyocyanin, an MvfR-regulated virulence factor, were also determined.

P. aeruginosa PA14 = experiment: Murine burn and infection model, M64 plus ciprofloxacin; type: in vivo, DC-1 mice; settings: IV at 6, 20, 28, 40, 60, 68 and 80 h; M64 100 μM (4 mg/Kg), ciprofloxacin 0.4 mg/Kg; 7 days; un-injected controls 30%
Text: A murine thermal injury model (Stevens et al., J Burn Care Rehabil. 1994; 15:232-235) was used as previously described to further assess bacterial pathogenicity in 6-wk-old DC-1 mice (Rahme et al., Science, 268(5219): p. 1899-902 (1995)) in the presence of combination of Ciprofloxacin (Bayer AG) and M64. Following mouse anesthetization, a full-thickness thermal burn injury involving 5%-8% of the body surface area was produced on the dermis of the shaved abdomen, and an inoculum of about 6-7×10^3 PA14 cells was injected intradermally into the burn eschar along with DMSO or 100 μM M64 compound. 100 μM (4 mg/Kg) of M64, 0.4 mg/Kg of ciprofloxacin (lower than the recommended dose of 10 mg/Kg), or a combination of M64+ciproflocaxin was also injected IV via tail vein at 6, 20, 28, 40, 60, 68 h and 80 h post-infection. Mice survival was subsequently assessed over the course of 7 days. Ten animals per treatment were used. In this set of experiments the concentration of ciprofloxacin used was lower than the therapeutic levels recommended to permit assessment of the possible synergistic effect between M64 and ciprofloxacin.

COc1ccccc1NC(=O)CSc1nc2ccccc2[nH]1 [Compound M46, 2-((1H-benzo[d]imidazol-2-yl)thio)-N-(2-methoxyphenyl)acetamide]
activity (impacts on HAQ and pyocyanin levels), structure-activity comparison [1]: did not improve the activity

CSc1cccc(NC(=O)CSc2nc3ccccc3[nH]2)c1 [Compound M4, 2-((1H-benzo[d]imidazol-2-yl)thio)-N-(3-(methylthio)phenyl)acetamide]
concentration at which compound was effective (decreased HAQ levels), as low as [1]: 10 µM
HAQ production / HAQ inhibition [1]: improved HAQ inhibition
DHQ level [2]: increased
HHQ and HQNO levels [2]: reduced

O=C(CSc1nc2ccc([N+](=O)[O-])cc2[nH]1)Nc1ccc(Br)cc1 [Compound M50, N-(4-bromophenyl)-2-((6-nitro-1H-benzo[d]imidazol-2-yl)thio)acetamide]
reduction of PA14-induced cytotoxicity [3]: effectively reduced cytotoxicity
activity (impacts on HAQ and pyocyanin levels), structure-activity comparison [1]: most active
reduction / inhibition of HAQs [1]: considerably inhibited
HAQ levels compared to the solvent control [2]: do not significantly alter HAQ levels
reduction / inhibition of pyocyanin [4]: considerably inhibited

Cc1ccc2nc(SCC(=O)Nc3ccc(Br)cc3)[nH]c2c1 [Compound M27, N-(4-bromophenyl)-2-((6-methyl-1H-benzo[d]imidazol-2-yl)thio)acetamide]
reduction of PA14-induced cytotoxicity [3]: effectively reduced cytotoxicity
concentration at which compound was effective (decreased HAQ levels), as low as [1]: 10 µM
activity (impacts on HAQ and pyocyanin levels), structure-activity comparison [1]: more active than M55
DHQ level [2]: increased
HHQ and HQNO levels [2]: reduced
pyocyanin levels [4]: less than half of the control

O=C(CSc1nc2ccccc2[nH]1)Nc1ccc(Br)cc1 [Compound M55, 2-((1H-benzo[d]imidazol-2-yl)thio)-N-(4-bromophenyl)acetamide]
activity (impacts on HAQ and pyocyanin levels), structure-activity comparison [1]: active compounds
DHQ level [2]: increased
HHQ and HQNO levels [2]: reduced

O=C(CSc1nc2ccccc2[nH]1)Nc1ccc(Cl)c(Cl)c1 [Compound M22, 2-((1H-benzo[d]imidazol-2-yl)thio)-N-(3,4-dichlorophenyl)acetamide]
activity (impacts on HAQ and pyocyanin levels), structure-activity comparison [1]: decreased the activity as compared to M26

COc1ccccc1NC(=O)CSc1nc2ccc([N+](=O)[O-])cc2[nH]1 [Compound M53, N-(2-methoxyphenyl)-2-((6-nitro-1H-benzo[d]imidazol-2-yl)thio)acetamide]
activity (impacts on HAQ and pyocyanin levels), structure-activity comparison [1]: not very active
HAQ levels compared to the solvent control [2]: do not significantly alter HAQ levels

CC(=O)Nc1ccc2nc(SCC(=O)Nc3ccc(I)cc3)[nH]c2c1 [Compound M65, 2-((6-acetamido-1H-benzo[d]imidazol-2-yl)thio)-N-(4-iodophenyl)acetamide]
activity (impacts on HAQ and pyocyanin levels), structure-activity comparison [1]: inactive

O=C(CSc1nc2ccc([N+](=O)[O-])cc2[nH]1)Nc1ccc(Cl)cc1 [Compound M51, N-(4-chlorophenyl)-2-((6-nitro-1H-benzo[d]imidazol-2-yl)thio)acetamide]
activity (impacts on HAQ and pyocyanin levels), structure-activity comparison [1]: most active
HAQ levels compared to the solvent control [2]: intermediate phenotype

O=C(CSc1nc2ccccc2[nH]1)Nc1ccccc1 [Compound M56, 2-((1H-benzo[d]imidazol-2-yl)thio)-N-phenylacetamide]
HAQ production / HAQ inhibition [1]: little impact
pyocyanin production ([4]; tested at 10 μM): little impact

N#Cc1ccc(NC(=O)CSc2nc3ccc([N+](=O)[O-])cc3[nH]2)cc1 [Compound M62, N-(4-cyanophenyl)-2-((6-nitro-1H-benzo[d]imidazol-2-yl)thio)acetamide]
reduction of PA14-induced cytotoxicity [3]: effectively reduced cytotoxicity
activity (impacts on HAQ and pyocyanin levels), structure-activity comparison [1]: most active
HAQ levels compared to the solvent control [2]: do not significantly alter HAQ levels

O=C(CSc1nc2ccc([N+](=O)[O-])cc2[nH]1)Nc1ccc(OC(F)(F)F)cc1 [Compound M58, 2-((6-nitro-1H-benzo[d]imidazol-2-yl)thio)-N-(4-(trifluoromethoxy)phenyl)acetamide]
activity (impacts on HAQ and pyocyanin levels), structure-activity comparison [1]: most active
HAQ levels compared to the solvent control [2]: intermediate phenotype

CC(C)c1ccc(NC(=O)CSc2nc3ccccc3[nH]2)cc1 [Compound M49, 2-((1H-benzo[d]imidazol-2-yl)thio)-N-(4-isopropylphenyl)acetamide]
activity (impacts on HAQ and pyocyanin levels), structure-activity comparison [1]: more active compound

COc1ccc(NC(=O)CSc2nc3ccc([N+](=O)[O-])cc3[nH]2)c(OC)c1 [Compound M34, N-(2,4-dimethoxyphenyl)-2-((6-nitro-1H-benzo[d]imidazol-2-yl)thio)acetamide]
concentration at which compound was effective (decreased HAQ levels), as low as [1]: 10 µM
activity (impacts on HAQ and pyocyanin levels), structure-activity comparison [1]: quite active
HAQ levels compared to the solvent control [2]: do not significantly alter HAQ levels
pyocyanin levels [4]: less than half of the control

O=C(CSc1nc2ccc(NC(=O)C(F)(F)F)cc2[nH]1)Nc1ccc(I)cc1 [Compound M63, 2,2,2-trifluoro-N-(2-((2-((4-iodophenyl)amino)-2-oxoethyl)thio)-1H-benzo[d]imidazol-6-yl)acetamide]
activity (impacts on HAQ and pyocyanin levels), structure-activity comparison [1]: inactive

CCc1ccc(NC(=O)CSc2nc3ccc(C)cc3[nH]2)cc1 [Compound M23, N-(4-ethylphenyl)-2-((6-methyl-1H-benzo[d]imidazol-2-yl)thio)acetamide]
activity (impacts on HAQ and pyocyanin levels), structure-activity comparison [1]: moderately active
DHQ level [2]: increased
HHQ and HQNO levels [2]: reduced
pyocyanin levels [4]: less than half of the control

O=C(O)c1cn(C2CC2)c2cc(N3CCNCC3)c(F)cc2c1=O [ciprofloxacin, reference compound]
survival rate (P. aeruginosa PA14): 80%

O=C(CSc1nc2ccccc2[nH]1)Nc1ccc(Cl)cc1 [Compound M26, 2-((1H-benzo[d]imidazol-2-yl)thio)-N-(4-chlorophenyl)acetamide]
concentration at which compound was effective (decreased HAQ levels), as low as [1]: 10 µM
activity (impacts on HAQ and pyocyanin levels), structure-activity comparison [1]: active compounds
DHQ level [2]: increased
HHQ and HQNO levels [2]: reduced
pyocyanin levels [4]: less than half of the control

COc1ccc(NC(=O)CSc2nc3ccc([N+](=O)[O-])cc3[nH]2)cc1 [Compound M61, N-(4-methoxyphenyl)-2-((6-nitro-1H-benzo[d]imidazol-2-yl)thio)acetamide]
activity (impacts on HAQ and pyocyanin levels), structure-activity comparison [1]: most active
HAQ levels compared to the solvent control [2]: do not significantly alter HAQ levels

N#Cc1ccc(NC(=O)CSc2nc3ccccc3[nH]2)cc1 [Compound B1, 2-((1H-benzo[d]imidazol-2-yl)thio)-N-(4-cyanophenyl)acetamide]
activity (impacts on HAQ and pyocyanin levels), structure-activity comparison [1]: active compounds
HAQ levels compared to the solvent control [2]: intermediate phenotype
pyocyanin levels [4]: less than half of the control

O=C(CSc1nc2ccccc2[nH]1)Nc1ccc([N+](=O)[O-])cc1 [Compound M45, 2-((1H-benzo[d]imidazol-2-yl)thio)-N-(4-nitrophenyl)acetamide]
activity (impacts on HAQ and pyocyanin levels), structure-activity comparison [1]: did not improve the activity

COc1ccc2nc(SCC(=O)Nc3ccc(Cl)c(Cl)c3)[nH]c2c1 [Compound M24, N-(3,4-dichlorophenyl)-2-((6-methoxy-1H-benzo[d]imidazol-2-yl)thio)acetamide]
activity (impacts on HAQ and pyocyanin levels), structure-activity comparison [1]: decreased the activity

O=C(CSc1nc2ccc([N+](=O)[O-])cc2[nH]1)Nc1ccc(I)cc1 [Compound M59, N-(4-iodophenyl)-2-((6-nitro-1H-benzo[d]imidazol-2-yl)thio)acetamide]
activity (impacts on HAQ and pyocyanin levels), structure-activity comparison [1]: most active
reduction / inhibition of HAQs [1]: considerably inhibited
HAQ levels compared to the solvent control [2]: intermediate phenotype
reduction / inhibition of pyocyanin [4]: considerably inhibited

From US8877940B2, “Antibiotic tolerance inhibitors” (Institut National de la Recherche Scientifique, priority 2011, dated 2014)
